Our source for the EC50 values is paper PMC7496960, “Nonanal modulates oviposition preference in female Helicoverpa assulta (Lepidoptera: Noctuidae) via the activation of peripheral neurons” (Pest Management Science, 2020).

In the experiment the test system is T1, HassOR67/Orco (HassOR67/HassOrco; OR67).
T1 construct: full-length ORF from antennal cDNA in pT7Ts; cRNA co-injected with Orco cRNA into Xenopus laevis oocytes; with Odorant receptor coreceptor
As to the kind of experiment: two-electrode voltage clamp, Xenopus oocytes. Type of experiment: cell-based, Helicoverpa assulta. Conditions: co-expressed with Orco; agonist; holding potential −80 mV; 1 × 10^−7 to 1 × 10^−3 M. For orientation: Two-electrode voltage clamp is typically applied to oocytes expressing channels or transporters.

Broadly, the EC50 is the midpoint of the concentration-response curve. Higher therefore signals a need for much substance. Turning to `CCCCCCCCC=O` [nonanal], the concentration giving a half-maximal response (EC50) turned out to be 8.49 µM.
